One assay addresses T1, Mannosidase 2, alpha B1 (Rattus norvegicus, UniProt Q6P762).
T1 sequence (Q6P762 whole entry): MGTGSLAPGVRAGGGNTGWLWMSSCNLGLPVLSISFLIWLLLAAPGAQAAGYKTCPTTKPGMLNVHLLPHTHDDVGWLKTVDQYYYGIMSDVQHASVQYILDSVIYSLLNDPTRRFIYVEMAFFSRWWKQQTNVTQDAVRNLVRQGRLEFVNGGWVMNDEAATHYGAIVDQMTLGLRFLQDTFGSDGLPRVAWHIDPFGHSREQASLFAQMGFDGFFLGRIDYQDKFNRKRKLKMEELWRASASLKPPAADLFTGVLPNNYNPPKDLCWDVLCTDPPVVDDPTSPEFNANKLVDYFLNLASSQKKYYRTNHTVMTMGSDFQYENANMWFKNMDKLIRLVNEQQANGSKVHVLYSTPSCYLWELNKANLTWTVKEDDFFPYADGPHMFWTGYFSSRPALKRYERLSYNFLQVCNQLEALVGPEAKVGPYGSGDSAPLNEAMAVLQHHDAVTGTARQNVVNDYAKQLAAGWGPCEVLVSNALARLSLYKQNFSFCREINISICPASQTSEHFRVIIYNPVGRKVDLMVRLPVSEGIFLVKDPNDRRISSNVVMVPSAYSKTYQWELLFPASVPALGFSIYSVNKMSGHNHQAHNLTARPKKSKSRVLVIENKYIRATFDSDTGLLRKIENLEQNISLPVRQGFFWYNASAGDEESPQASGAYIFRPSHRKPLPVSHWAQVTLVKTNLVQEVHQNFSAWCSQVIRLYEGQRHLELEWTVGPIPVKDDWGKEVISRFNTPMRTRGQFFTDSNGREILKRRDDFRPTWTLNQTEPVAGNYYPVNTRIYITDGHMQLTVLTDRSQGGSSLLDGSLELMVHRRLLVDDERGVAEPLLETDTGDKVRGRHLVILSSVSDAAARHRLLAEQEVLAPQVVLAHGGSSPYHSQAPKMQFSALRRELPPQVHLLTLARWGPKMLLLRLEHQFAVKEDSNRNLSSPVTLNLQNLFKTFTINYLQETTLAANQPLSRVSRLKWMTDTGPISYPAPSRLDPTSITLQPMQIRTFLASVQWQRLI
The assay can be described thus: Inhibition of lysosomal Alpha-mannosidase II in rat liver. Format: tissue-based.

Another assay concerns the target T2, Alpha-mannosidase 2 (Rattus norvegicus, UniProt P28494).
T2 sequence (P28494 whole entry): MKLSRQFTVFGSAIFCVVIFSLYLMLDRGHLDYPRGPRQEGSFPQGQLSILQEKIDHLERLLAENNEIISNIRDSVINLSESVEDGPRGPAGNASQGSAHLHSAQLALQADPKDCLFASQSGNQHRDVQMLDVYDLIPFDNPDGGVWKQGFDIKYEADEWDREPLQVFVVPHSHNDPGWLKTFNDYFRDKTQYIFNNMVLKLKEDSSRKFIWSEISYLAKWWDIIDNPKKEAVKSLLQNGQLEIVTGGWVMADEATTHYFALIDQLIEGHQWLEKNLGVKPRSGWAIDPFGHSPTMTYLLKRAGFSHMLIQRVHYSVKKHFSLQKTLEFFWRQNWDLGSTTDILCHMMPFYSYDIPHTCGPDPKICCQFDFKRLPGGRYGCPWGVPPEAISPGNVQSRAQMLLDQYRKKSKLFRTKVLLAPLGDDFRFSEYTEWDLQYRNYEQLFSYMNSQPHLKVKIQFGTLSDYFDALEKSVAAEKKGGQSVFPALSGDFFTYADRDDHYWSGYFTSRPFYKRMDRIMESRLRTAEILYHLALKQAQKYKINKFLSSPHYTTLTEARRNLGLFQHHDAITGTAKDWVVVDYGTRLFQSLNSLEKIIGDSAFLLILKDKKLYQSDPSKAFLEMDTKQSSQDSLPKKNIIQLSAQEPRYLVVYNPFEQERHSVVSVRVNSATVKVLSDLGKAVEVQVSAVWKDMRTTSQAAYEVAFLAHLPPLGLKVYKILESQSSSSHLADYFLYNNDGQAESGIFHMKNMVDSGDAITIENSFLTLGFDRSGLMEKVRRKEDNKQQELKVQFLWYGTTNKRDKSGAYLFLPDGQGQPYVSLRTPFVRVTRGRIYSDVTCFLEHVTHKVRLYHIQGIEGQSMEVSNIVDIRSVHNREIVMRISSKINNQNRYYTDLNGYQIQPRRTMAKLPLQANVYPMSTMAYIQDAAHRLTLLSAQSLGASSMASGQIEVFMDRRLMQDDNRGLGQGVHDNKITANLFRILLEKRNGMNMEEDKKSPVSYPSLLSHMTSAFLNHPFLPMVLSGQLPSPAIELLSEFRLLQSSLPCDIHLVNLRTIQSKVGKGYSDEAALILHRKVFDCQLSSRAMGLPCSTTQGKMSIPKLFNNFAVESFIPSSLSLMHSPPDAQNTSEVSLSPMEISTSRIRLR
The assay can be described thus: Competitive Inhibitory activity against Golgi Alpha-mannosidase II.

SMILES strings stand for the structures. Where only a bound is given, the exact number is not on record here.

Usually IC50 stands for the concentration that gives 50% inhibition. A word on the Ki: it is the dissociation constant of the complex between target and ligand, obtained from inhibition or displacement. A higher Ki goes with a looser hold on the target. Take `CCCCN1C[C@H](O)[C@@H](O)[C@H](O)[C@H]1CO`: the half-maximal inhibitory concentration (IC50) against Mannosidase 2, alpha B1 is less than 50 µM. Also, the inhibitory constant (Ki) at Alpha-mannosidase 2 is less than 50 µM.

With `CCCCN1C[C@@H](O)[C@H](O)[C@H]1CO`, the IC50 at Mannosidase 2, alpha B1 is less than 50 µM. Also, on Alpha-mannosidase 2, the inhibition constant (Ki) was 120 µM.

On Mannosidase 2, alpha B1, `CN1C[C@H](O)[C@@H](O)[C@H](O)[C@H]1CO` showed an IC50 of 1000 µM. At Alpha-mannosidase 2, the inhibitory constant (Ki) is less than 50 µM.

`CN1C[C@@H](O)[C@H](O)[C@H]1CO`: the 50% inhibitory concentration (IC50) against Mannosidase 2, alpha B1 turned out to be 360 µM. The molecule also returned an inhibition constant Ki on Alpha-mannosidase 2 of 51 µM.

Values taken from ChEMBL document CHEMBL1128713, “N-alkylated nitrogen-in-the-ring sugars: conformational basis of inhibition of glycosidases and HIV-1 replication” (J Med Chem, 1995).
